In paper PMC12406255, “Engineering Peptide Modulators for T‑Cell Migration by Structural Scaffold Matching” (Journal of Medicinal Chemistry, 2025):
Positions of bridges follow the written chain, without caps; N, C: chain ends. Non-standard residues stand in square brackets, D forms with d. Residues, ends and D or L forms follow the SMILES beside them. Nle = CCCC[C@H](N)C(=O)O

System: CD3+ lymphocytes
Test: cells
Format: cell-based, human
Conditions: for % Inhibition of cell migration compared to control, CD3+: normalized to untreated control, mean ± SEM of 4-6 experiments
Method: 1 Transwell-based migration assay to study lymphocyte transendothelial migration. (A) The general principle of the transwell migration assay is depicted. Endothelial cells (EC) are seeded in transwell inserts and are incubated for 2 days to form an EC monolayer. On the day before the assay, the ECs are cytokine-stimulated to induce the expression of adhesion molecules. In the migration assay, human peripheral blood mononuclear cells (PBMC) are placed into the donor compartment of the transwell setup. After 4 h of incubation time, the migrated cells are harvested from the receiver compartment, stained with fluorescent antibodies and counted using flow cytometry. (B) PBMCs were preincubated with S1P for 1.5 h and then transferred into the donor compartment on top of the EC monolayer. […] Data are shown as mean ± SD of 3 to 5 independent experiments.
Transwell migration assays were performed similarly as published previously. HMEC-1 cells were seeded at a density of 75,000 cells per well in transwell inserts. Three days after cell seeding, the medium was changed, and the cells were stimulated with 100 ng/mL TNF-α and 20 ng/mL IFN-γ for 16–18 h. On the day of the assay, cells were washed with migration medium (serum-free RPMI medium supplemented with 0.1% BSA) to remove residual cytokines and starved for at least 1 h at 37 °C in migration medium. PBMC were starved for at least 1.5 h in migration medium before addition to the EC. For S1P and lifitegrast-treated samples, the PBMC were preincubated for at least 1.5 h at 37 °C with the ligands before addition to the EC. Pepitem and other peptides were added onto the EC monolayer and preincubated for 15–30 min at 37 °C before the addition of the PBMC. 200,000 PBMC per well were added directly on top of the EC prestimulated with pepitem or other peptides to reach a final volume of 150 μL in the donor compartments. The receiver compartments of the wells were filled with 600 μL RPMI with 20% FBS. After 4 h of migration at 37 °C, the receiver compartment with the migrated cells was collected. The migrated cells were stained with the indicated antibodies: CD3-APC (clone: OKT3, lot: B400127), CD4-PE (clone: OKT4. lot: B379180), CD8-FITC (clone: HIT8a, lot: B370193) from Biolegend and CD3-VioGreen (clone: REA613, lot: 5240502518), CD45RO-FITC (clone: REA611, lot: 5240502519), CD4-PerCP-Vio700 (clone: REA623, lot: 5240506702), CXCR3 PE-Vio615 (clone: REA232, lot: 5240506722), CD196-APC (clone: REA190, lot: 5240506717), CD8-APC-Vio770 (clone: REA734, lot: 5240303993) and CD45RO-PEVio616 (clone: REA611, lot: 5231102514) from Miltenyi Biotec (Bergisch Gladbach, Germany) and counted using precision counting beads (Biolegend) on a CytoflexS flow cytometer (BeckmanCoulter). Data was analyzed using CytExpert (Version 2.4). T cells were gated as CD3^+ cells, T cell subsets were gated as CD4^+ (CD3^+, CD4^+), CD8^+ (CD3^+, CD8^+), memory CD4^+ (CD3^+, CD4^+, CD45RO^+), memory CD8^+ (CD3^+, CD8^+, CD45RO^+) and Th1 cells (CD3^+, CD4^+, CXCR3^+, CCR6^–).
Data were analyzed using GraphPad Prism software. EC50 values were calculated by three-parameter nonlinear regression analysis. For this, the data points were normalized to the number of migrated cells in untreated (buffer) control samples (100%), and the regression was fitted with the top constraint to 100 and the slope fixed to 1. Statistical significance is indicated in graphs as n.s. not significant, * p < 0.05; ** p < 0.01; *** p < 0.001. The statistical tests used are indicated in the respective figure captions.

CCCC[C@@H]1NC(=O)[C@H](C(C)C)NC(=O)[C@H](CCCCN)NC(=O)[C@@H](NC(=O)[C@H](CCC(N)=O)NC(=O)[C@H](CCC(=O)O)NC(C)=O)CSSC[C@@H](C(=O)N[C@@H](CCC(=O)O)C(=O)N[C@@H](CCCCN)C(N)=O)NC(=O)[C@H](CC(N)=O)NC(=O)[C@H](CC(=O)O)NC(=O)[C@H](CC(C)C)NC(=O)[C@@H]2CSSC[C@H](NC1=O)C(=O)N[C@@H](Cc1ccc(O)cc1)C(=O)N[C@@H](C)C(=O)N[C@@H](CCC(N)=O)C(=O)NCC(=O)N[C@@H](C)C(=O)N[C@@H](CCC(=O)O)C(=O)N[C@@H](CC(C)C)C(=O)N1CCC[C@H]1C(=O)N[C@@H](CCC(=O)O)C(=O)N[C@@H](CC(C)C)C(=O)N[C@@H](CC(C)C)C(=O)N[C@@H](CCCNC(=N)N)C(=O)N[C@@H](CCCNC(=N)N)C(=O)N2 [VhTI-pep 2] (Ac-EQCKV[Nle]CYAQGAELPELLRRCLDNCEK-NH2; disulfide 3-25, 7-21) was tested, and the “% Inhibition of cell migration compared to control, CD3+” value (0.1 μM) was 28.7 ± 6.4%, the “% Inhibition of cell migration compared to control, CD3+” value (1 μM) was 37.2 ± 6.8% and the EC50 (EC monolayer preincubated with peptide 15-30 min, healthy-donor PBMC added, 4 h migration, flow cytometry, mean ± SD of 3 to 5 (VhTI-pep 2: 4) independent experiments, read-out: EC50, inhibition of CD3+ lymphocyte migration) was 10.6 ± 16.5 nM. For the same compound, the “maximal effect of inhibition of cell migration, CD3+ lymphocytes” value (from the concentration-response experiment) was 39.3 ± 8.7%.
